Assays:
Assay in all cases: relative viability (nuclei count vs DMSO), 5 days (fraction); higher = more cells survive
[1] = compound: C1=CC=C(C(=C1)C2=CC=C(C=C2)C3=CSC4=C3C(=C(C(=O)N4)C#N)O)O + Nc1ncn([C@H]2C[C@H](O)[C@@H](CO)O2)c(=O)n1 [Decitabine] (partner 2 µM)
Procedure, shortened: (§1)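 After 5 days of treatment, lung cancer cells in 1536-well plates were fixed and stained in a single step (final 0.05% Triton X-100, 1% formaldehyde, 1 ug/ml Hoechst) and their nuclei counted on 4× images. Treatment had been applied by pin tool the day after seeding as one drug alone or as a fixed anchor-drug dose with five library-drug doses (not always all listed) in √10 steps. Relative viability is the nuclei count of treated wells divided by that of vehicle wells, and values are medians of duplicate plates.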

TGX 221 + Dasatinib = compound: CC1=CN2C(=O)C=C(N=C2C(=C1)C(C)NC3=CC=CC=C3)N4CCOCC4 [TGX 221] + Cc1nc(Nc2ncc(C(=O)Nc3c(C)cccc3Cl)s2)cc(N2CCN(CCO)CC2)n1 [Dasatinib] (partner 0.075 µM)
Procedure, shortened: as §1

[2] = compound: O=C(CCCCCCNC(=O)c1cnc(N(c2ccccc2)c2ccccc2)nc1)NO [Ricolinostat] + CC(=O)Nc1cccc(-n2c(=O)n(C3CC3)c(=O)c3c(Nc4ccc(I)cc4F)n(C)c(=O)c(C)c32)c1 [Trametinib] (partner 0.02 µM)
Procedure, shortened: as §1

[3] = compound: O=C(CCCCCCNC(=O)c1cnc(N(c2ccccc2)c2ccccc2)nc1)NO [Ricolinostat] + CC(C)C[C@H](NC(=O)[C@H](Cc1ccccc1)NC(=O)c1cnccn1)B(O)O [Bortezomib] (partner 0.002 µM)
Procedure, shortened: as §1

Cell Line | relative viability ([1]; first compound 0.08 µM) | relative viability ([1]; first compound 0.253 µM) | relative viability ([1]; first compound 0.8 µM) | relative viability ([1]; first compound 2.53 µM) | relative viability ([1]; first compound 8 µM) | relative viability (TGX 221 + Dasatinib; first compound 0.08 µM) | relative viability (TGX 221 + Dasatinib; first compound 0.253 µM) | relative viability (TGX 221 + Dasatinib; first compound 0.8 µM) | relative viability (TGX 221 + Dasatinib; first compound 2.53 µM) | relative viability (TGX 221 + Dasatinib; first compound 8 µM) | relative viability ([2]; first compound 0.08 µM) | relative viability ([2]; first compound 0.253 µM) | relative viability ([2]; first compound 0.8 µM) | relative viability ([2]; first compound 2.53 µM) | relative viability ([3]; first compound 0.08 µM) | relative viability ([3]; first compound 0.253 µM) | relative viability ([3]; first compound 0.8 µM) | relative viability ([3]; first compound 2.53 µM)
HOP-62 | 0.218 | 0.238 | 0.221 | 0.238 | 0.211 | 0.668 | 0.566 | 0.635 | 0.533 | 0.534 | 0.335 | 0.391 | 0.384 | 0.432 | 0.501 | 0.595 | 0.799 | 0.532
IA-LM | – | – | – | – | – | – | – | – | – | – | – | – | – | – | 0.628 | 0.696 | 0.73 | 0.594
LC-2-ad | 0.743 | 0.865 | 0.832 | 0.777 | 0.791 | 0.459 | 0.51 | 0.66 | 0.55 | 0.505 | 0.899 | 0.911 | 0.907 | 0.836 | 0.992 | 0.984 | 0.966 | 0.787
LCLC-97TM1 | 0.237 | 0.267 | 0.226 | 0.252 | 0.226 | 0.902 | 0.73 | 0.779 | 0.742 | 0.791 | 0.195 | 0.182 | 0.25 | 0.287 | – | 0.59 | 0.212 | 0.163
LCLC-103H | 0.799 | 0.734 | 0.695 | 0.697 | 0.79 | 0.359 | 0.438 | 0.446 | 0.344 | 0.307 | 0.632 | 0.599 | 0.685 | 0.77 | 0.79 | 0.88 | 1.09 | 0.927
LK-2 | 0.178 | 0.228 | 0.236 | 0.343 | 0.314 | 0.242 | 0.293 | 0.312 | 0.298 | 0.265 | 0.756 | 1.04 | 0.817 | 0.718 | – | – | – | –
LOU-NH91 | 0.854 | 0.865 | 0.824 | 0.781 | 0.782 | 0.561 | 0.541 | 0.535 | 0.571 | 0.529 | – | 0.783 | 0.763 | 0.864 | – | 0.502 | 0.497 | 0.446
LU99A | 0.894 | 0.523 | 0.961 | 0.777 | 1.02 | 0.507 | 0.507 | 0.509 | 0.556 | 0.593 | 0.555 | 0.559 | 0.475 | 0.599 | 1.02 | 0.952 | 0.976 | 0.745
LXF-289 | 0.428 | 0.393 | 0.393 | 0.364 | 0.365 | 0.209 | 0.254 | 0.194 | 0.18 | 0.203 | 0.675 | 0.638 | 0.688 | 0.629 | 0.951 | 0.931 | 0.993 | 0.874
NCI-H23 | 0.305 | 0.33 | 0.337 | 0.327 | 0.312 | 0.784 | 0.745 | 0.823 | 0.742 | 0.586 | 0.445 | 0.414 | 0.428 | 0.406 | 0.793 | 1.14 | 1.16 | 0.993
NCI-H358 | 0.205 | 0.23 | 0.205 | 0.2 | 0.177 | 0.158 | 0.169 | 0.146 | 0.165 | 0.158 | 0.125 | 0.135 | 0.173 | 0.176 | – | – | – | –
NCI-H522 | 0.739 | 0.772 | 0.674 | 0.628 | 0.671 | 0.834 | 0.81 | 0.851 | 0.843 | 0.826 | 0.742 | 0.711 | 0.769 | 0.832 | – | – | – | –
NCI-H1299 | – | – | – | – | – | – | – | – | – | – | – | – | – | – | 0.998 | 0.955 | 1.04 | 0.937
NCI-H1395 | – | 0.801 | 0.703 | 0.702 | 0.745 | 0.399 | 0.383 | 0.406 | 0.348 | 0.362 | – | 0.957 | 1.08 | 1.2 | – | – | – | –
NCI-H1563 | – | – | – | – | – | 0.427 | 0.457 | 0.434 | 0.46 | 0.428 | – | – | – | – | 0.754 | 0.758 | 0.837 | 0.787
NCI-H1623 | – | – | – | – | – | 0.538 | 0.564 | 0.599 | 0.541 | 0.536 | – | – | – | – | – | – | – | –
NCI-H1648 | – | 0.537 | 0.493 | 0.478 | 0.458 | – | – | – | – | – | – | 0.512 | 0.489 | 0.519 | – | – | – | –
NCI-H1703 | – | – | – | – | – | – | – | – | – | – | – | – | – | – | – | 0.299 | 0.261 | 0.172
NCI-H1793 | 0.483 | 0.5 | 0.483 | 0.499 | 0.49 | 0.344 | 0.289 | 0.363 | 0.48 | 0.381 | 0.327 | 0.389 | 0.435 | 0.444 | – | – | – | –
NCI-H1944 | 0.454 | 0.44 | 0.39 | 0.468 | 0.465 | 0.225 | 0.202 | 0.228 | 0.206 | 0.181 | 0.46 | 0.469 | 0.442 | 0.407 | – | – | – | –
NCI-H2170 | 0.551 | 0.467 | 0.467 | 0.454 | 0.446 | 0.542 | 0.48 | 0.527 | 0.519 | 0.507 | 0.921 | 0.879 | 0.985 | 0.973 | – | – | – | –
NCI-H2228 | – | – | – | – | – | 0.508 | 0.471 | 0.517 | 0.474 | 0.398 | 0.642 | 0.534 | 0.482 | 0.45 | 0.789 | 0.807 | 0.907 | 0.594
NCI-H2342 | 0.826 | 0.774 | 0.724 | 0.729 | 0.604 | 0.286 | 0.339 | 0.314 | 0.292 | 0.299 | 0.636 | 0.807 | 0.831 | 0.78 | – | – | – | –
SK-MES-1 | 0.382 | 0.408 | 0.383 | 0.404 | 0.376 | 0.315 | 0.275 | 0.305 | 0.223 | 0.162 | 0.548 | 0.537 | 0.656 | 0.734 | – | – | – | –
SW 900 | – | 0.452 | 0.467 | 0.459 | 0.446 | 0.461 | 0.444 | 0.383 | 0.39 | 0.254 | 0.659 | 0.905 | 0.954 | 0.609 | – | – | – | –

— the supplement of paper PMC10307832
